Source: patent US9320734B2, “Small molecule inhibitors of the pleckstrin homology domain and methods for using same” (Board of Regents, The University of Texas System, priority 2008, dated 2016)
Converted amounts (≈) assume the structure as drawn. Values belong to the molecule of their own block, whether it stands above or below them.

Assays:
[1] = system: phospho-Ser473-AKT in HT-29 cells; test: Cellular AKT inhibition, Western blot phospho-Ser473-AKT, HT-29 cells; type: cell-based; settings: human HT-29 colon cancer cells
Description: (§1) AKT inhibition leads to cellular apoptosis.
(§2) AKT activity was measured by Western blotting using anti-[…] AKT antibody. Downstream targets of AKT were detected also by Western blotting using specific anti-phospho antibodies and anti-actin was used as a loading control.

[2] = system: phospho-Ser473 AKT in NIH3T3 cells; test: Cellular AKT inhibition, phospho-Ser473 AKT, NIH3T3 cells; type: cell-based; settings: mouse NIH3T3, phospho-Ser473 AKT
Description: as §2

[3] = system: HT-29 colon cancer xenografts; test: Antitumor activity, HT-29 colon cancer xenografts; type: in vivo, scid mice; settings: orally for 5 days, daily dose 250 mg/kg
Description: (§3) AKT and phospo-Ser-AKT values are the mean of 4 mice and bars are S.E., *p<0.05, **p<0.01. Additionally, 24 hours after administration there was an unexpected significant decrease in the apparent total AKT concentration compared to an actin loading control.

[4] = system: phospho-Ser-AKT in HT-29 xenograft tumors; test: Tumor phospho-Ser-AKT in HT-29 xenografts; type: in vivo, scid mice
Description: as §3

[5] = Toxicity of compound 316
[6] = Pharmacokinetics of compound 316, plasma concentrations
[7] = system: BXPC3 pancreatic tumor cells, MCF-7 breast tumor cells, and A549 nscl lung cancer cells; test: Antitumor activity of alkyl chain analogs in subcutaneous xenografts (FIG. 9); type: in vivo; settings: 200 mg/kg twice a day for 10 days
[8] = system: HT-29 cells; test: Cell survival / cytotoxicity, MTT assay, HT-29 cells; type: cell-based, human; settings: HT-29 cells; NI = not inhibitory; read-out: Cytotoxicity (IC50 μM)
[9] = biological target: PH domain of PDK1 (Homo sapiens (Human), UniProt O15530); test: SPR direct binding to PDK1 PH domain; settings: NB = no measurable binding, read-out: PDK1 PH mKD
Description: (§4) Binding assays using SPR and an ELISA competitive binding assay were used to measure the binding affinity (KD) of the compounds to all three PH domains. SPR was carried out as described above. […] Purified GST-PH domains were incubated with increasing concentrations of the compounds under anylsis for about 4 hours in 0.2 M carbonate buffer pH 9.4 and were added to the 96-well plate and incubated overnight at 4° C. Following incubation, the plate was washed 4 times with phosphate buffered 0.9% NaCl (PBS), blocked with 3% bovine serum albumin (BSA) in PBS and 0.01% Tween for 1 hour, washed again 4 times with PBS and mouse monoclonal anti-glutathione-S-transferase antibody in 3% BSA (1:2000) was added for 1 hr at room temperature with shaking. The plate was washed 4 times with PBS and an anti-mouse IgG horseradish peroxidase coupled antibody (dilution 1:2000 in 3% BSA) was added for 1 hr. After 4 washes with PBS, 2,2′-azinobis[3-ethylbenzothiazoline-6-sulfonic acid]-diammonium salt (ABST) was added and the reaction was allowed to develop for 30 min.

[10] = system: HT-29 cells; test: Metabolic stability under cell culture conditions (incubation with HT-29 cells); type: in vitro ADME, human; settings: for Metabolic half life: incubating with HT-29 cells at maximum DMEM concentration at 37° C.
Excerpt: Compound 6 was too insoluble to obtain data.

[11] = Solubility; type: physicochemical
[12] = biological target: IRS1 PH domain (Homo sapiens (Human), UniProt P35568); test: SPR direct binding to IRS1 PH domain; settings: NB = no measurable binding, read-out: IRS1 PH mKD
Description: as §4

[13] = biological target: AKT PH domain (Homo sapiens (Human), UniProt P31749); test: SPR spectroscopy direct binding (Biacore 2000); settings: purified AKT PH domain, SPR (Biacore 2000); NB = not binding
Description: as §4

[14] = system: Panc-1 pancreatic cell line; test: Apoptosis, morphological assay, Panc-1 cells; type: cell-based, human; settings: Panc-1, morphological assay
Excerpt: as §1

[15] = system: MiaPaca-2 pancreatic cell line; test: Apoptosis, morphological assay, MiaPaCa-2 cells; type: cell-based, human; settings: MiaPaca-2, morphological assay
Excerpt: as §1

[16] = system: phospho-Ser473-AKT in Panc-1 cells; test: Cellular AKT inhibition, Western blot phospho-Ser473-AKT, Panc-1 cells; settings: Homo sapiens, PANC-1, read-out: pAKT inhibition (IC50)
[17] = system: phospho-Ser473-AKT in MiaPaCa-2 cells; test: Cellular AKT inhibition, Western blot phospho-Ser473-AKT, MiaPaCa-2 cells; settings: Homo sapiens, MIA PaCa-2, read-out: pAKT inhibition (IC50)
[18] = system: phospho-Ser473-AKT in BxPC-3; test: Cellular AKT inhibition, Western blot phospho-Ser473-AKT, BxPC-3 cells; type: cell-based, human; settings: BxPC-3 cells, Western blot
[19] = Plasma levels of compound 104 (HPLC); type: in vivo, scid mice; settings: single 125 mg/kg i.p. dose, between 1 and 6 h
Description: (§5) This observation was tested using pharmacodynamic and pharmacokinetic studies. […]. […] Western blotting was performed as described above. […].

[20] = type: in vivo; settings: single doses up to 250 mg/kg; preliminary studies
Description: as §5

[21] = system: BxPC-3 pancreatic cancer; test: Antitumor activity, oral dosing, BxPC-3 xenograft; type: in vivo, scid mice; settings: BxPC-3, oral
[22] = system: PC3 prostate cancer; test: Antitumor activity, oral dosing, PC3 xenograft; type: in vivo, scid mice; settings: 125 mg/kg BID × 5 D
[23] = system: SKOV-3 ovarian cancer; test: Antitumor activity, oral dosing, SKOV-3 xenograft; type: in vivo, scid mice; settings: SKOV-3, oral, 250 mg/kg BID × 10 D
[24] = system: A549 nsc lung cancer; test: Antitumor activity, oral dosing, A549 xenograft; type: in vivo, scid mice; settings: 200 mg/kg BID × 10 D
[25] = system: MCF-7 breast cancer; test: Antitumor activity, oral dosing, MCF-7 xenograft; type: in vivo, scid mice; settings: MCF-7, oral
[26] = system: HaCaT cells; test: Apoptosis (PARP cleavage), HaCaT cells; type: cell-based, human; settings: 10 μM
Excerpt: (§6) Normal morphogenesis and differentiation features of skin keratinocytes are retained in the HaCaT cultures.

[27] = system: HaCat-II,4 cells; test: Apoptosis (PARP cleavage), HaCaT-II,4 cells; type: cell-based, human; settings: 10 μM
Excerpt: as §6

[28] = system: total AKT in scid mouse skin; test: Topical application, total AKT immunohistochemistry in skin; type: in vivo, scid mice; settings: 20 mg/ml in 0.1 ml acetone topically; between 1 and 4 hours, reappears after 24 hours
Description: Skin biopsies were taken and immunohistochemistry for AKT was performed on the sections. […] Staining was measured by quantitative immunohistochemistry with correction for non-specific background staining (p<0.05). Phospho-Ser^473-AKT was not detectable in dermal layer. FIG. 15C summarizes the effects of compound over a 24 hour period as determined by Western blot analysis performed as described above.

Sequence of IRS1 PH domain (P35568 12-115): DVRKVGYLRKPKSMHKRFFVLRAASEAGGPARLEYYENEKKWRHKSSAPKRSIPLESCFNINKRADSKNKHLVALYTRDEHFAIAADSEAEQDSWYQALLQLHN
Sequence of PH domain of PDK1 (O15530 459-550): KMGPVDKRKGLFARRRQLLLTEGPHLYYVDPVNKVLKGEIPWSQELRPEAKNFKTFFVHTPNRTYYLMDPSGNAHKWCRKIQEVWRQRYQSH
Sequence of AKT PH domain (P31749 5-108): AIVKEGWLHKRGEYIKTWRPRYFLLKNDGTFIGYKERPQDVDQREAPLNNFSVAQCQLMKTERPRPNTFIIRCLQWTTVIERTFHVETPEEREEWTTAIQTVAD

Structure (SMILES): CC1=NN(C(=O)c2ccc(Cl)cc2)C(=O)C1/N=N/c1ccc(S(=O)(=O)Nc2ncccn2)cc1 (centres unmarked) [Compound 316, (E)-4-((1-(4-chlorobenzoyl)-3-methyl-5-oxo-4,5-dihydro-1H-pyrazol-4-yl)diazenyl)-N-(pyrimidin-2-yl)benzenesulfonamide]
IC50 [1]: 13 µM
IC50 [2]: 4 µM
antitumor activity [3]: no activity
tumor phospho-Ser-AKT ([4]; 4 hours after a single 250 mg/kg dose): inhibition of tumor phospho-Ser-AKT was observed
tumor phospho-Ser-AKT ([4]; 24 hours after a single 250 mg/kg dose): appears to lost
toxicity, repeated dose ([5]; five daily doses of 250 mg/kg i.p.): moderate neutropenia but no other sign of toxicity
toxicity, single dose ([5]; single dose of up to 250 mg/kg, preliminary studies): no toxicity
elimination ([6]; 250 mg/kg): eliminated relatively rapidly over about a 24 hr period
peak plasma concentration ([6]; single dose 250 mg/kg i.p.): 1.4 µM
peak plasma concentration ([6]; single dose 250 mg/kg oral): 0.6 µM

Structure (SMILES): CCCCc1ccc(S(=O)(=O)Nc2nncs2)cc1 [Compound 155, 4-Butyl-N-(1,3,4-thiadiazol-2-yl)benzenesulfonamide]
antitumor activity [7]: inactive

Structure (SMILES): CCCCCCCCCCCCc1ccc(S(=O)(=O)Nc2nncs2)cc1 [Compound 104, 4-Dodecyl-N-(1,3,4-thiadiazol-2-yl)benzenesulfonamide]
GSK3β and p70S6K phosphorylation [18]: inhibited in a dose-dependent manner
Apoptosis at 20 μmol/L [14]: 40.0 ± 2.9/ %
Apoptosis at 20 μmol/L [15]: 31.3 ± 1.6%
plasma concentration [19]: a peak corresponding to compound 104 was detected in the plasma
toxicity [20]: not toxic
Growth rate mm^3/10 days ([21]; 100 mg/kg BID × 10 D): 181 ± 52 mm^3/10 days
T/C % ([21]; 100 mg/kg BID × 10 D): 64.8%
Growth rate mm^3/10 days ([21]; 125 mg/kg BID × 5 D): 67 ± 35 mm^3/10 days
T/C % ([21]; 125 mg/kg BID × 5 D): 29.4%
Growth rate mm^3/10 days ([21]; 200 mg/kg BID × 10 D): 77 ± 44 mm^3/10 days
T/C % ([21]; 200 mg/kg BID × 10 D): 27.6%
Growth rate mm^3/10 days ([21]; 250 mg/kg BID × 5 D): 46 ± 53 mm^3/10 days
T/C % ([21]; 250 mg/kg BID × 5 D): 20.1%
Growth rate mm^3/10 days [22]: 470 ± 121 mm^3/10 days
T/C % [22]: 60.3%
Growth rate mm^3/10 days [23]: 122 ± 16 mm^3/10 days
T/C % [23]: 28.3%
Growth rate mm^3/10 days [24]: 182 ± 47 mm^3/10 days
T/C % [24]: 44.1%
Growth rate mm^3/10 days ([25]; 100 mg/kg BID × 10 D): 383 ± 139 mm^3/10 days
T/C % ([25]; 100 mg/kg BID × 10 D): 93.4%
Growth rate mm^3/10 days ([25]; 200 mg/kg BID × 10 D): 156 ± 30 mm^3/10 days
T/C % ([25]; 200 mg/kg BID × 10 D): 38.0%
apoptosis [26]: 80%
apoptosis [27]: 60%
Total Akt staining in skin [28]: decreased significantly overtime

Further lines, with some results ahead:

IC50 [1]: > 20 µM
Kd [9]: 3.57 µM
Metabolic half life [10]: 1.52 h
Solubility [11]: 28.6 µM (≈ 14.9 µg/mL)
Structure (SMILES): CC1=NN(C(=O)c2ccc(C(C)(C)C)cc2)C(=O)C1/N=N/c1ccc(S(=O)(=O)Nc2ncccn2)cc1 (centres unmarked) [Compound 332]
IC50 [2]: > 20 µM
IC50 [8]: 25 µM

IC50 [1]: > 20 µM
Kd [9]: 0.42 µM
Kd [12]: 1.74 ± 0.41 µM
Metabolic half life [10]: 2.3 h
Solubility [11]: 13.1 µM (≈ 6.28 µg/mL)
Structure (SMILES): CC1=NN(C(=O)c2ccc(O)cc2)C(=O)C1/N=N/c1ccc(S(=O)(=O)Nc2ncccn2)cc1 (centres unmarked) [Compound 360]
IC50 [2]: 5 µM

KD [13]: did not appear to bind directly
IC50 [16]: > 50 µM
IC50 [17]: > 50 µM
Structure (SMILES): CC(=O)Nc1ccc(S(=O)(=O)Nc2nncs2)cc1 [Compound 102, N-(4-(N-1,3,4-Thiadiazol-2-ylsulfamoyl)phenyl)acetamide]
Apoptosis at 20 μmol/L [14]: 6.8 ± 0.9/ %
Apoptosis at 20 μmol/L [15]: 10.3 ± 2.1%

IC50 [1]: > 20 µM
Kd [12]: 0.14 ± 0.02 µM
Metabolic half life [10]: >8 h
stability under cell culture conditions ([10]; over the time period studied): did not appear to breakdown
Solubility [11]: 12.9 µM (≈ 6.17 µg/mL)
Structure (SMILES): CC1=NN(C(=O)c2ccc(N)cc2)C(=O)C1/N=N/c1ccc(S(=O)(=O)Nc2ncccn2)cc1 (centres unmarked) [Compound 333]
